{"source": "patent US20250155433A1", "about": "“FLUORESCENT SENSORS FOR DETECTION OF SIDEROPHORES AND OTHER MOLECULES PRODUCED BY BACTERIAL PATHOGENS” (Kansas State University Research Foundation, priority 2021, published 2025)", "key": {"[1]": {"biological_target": "KpnFepA1658 (Klebsiella pneumoniae, UniProt A6T631, A407C)", "experiment": "Fluorescence quenching binding to KpnFepA1658-FM sensor", "settings": "read-out: Affinity (KD) of sensor KpnFepA 1658, apo siderophore; apo (parenthetic value); A382C", "description": "(§1) Fluorescence modifications. For modifications with maleimide fluorophores, we inoculated E. coli strains OKN3, OKN13, OKN359 or OKN1359, harboring plasmids that encoded a Cys mutant LGP, from frozen stocks into LB, grew them overnight and sub-cultured at 1% into iron-deficient MOPS minimal media, with shaking (200 rpm) at 37° C. for 10-12 h, until late exponential phase. After collecting the cells by centrifugation at 7500×g for 15 min, and washing with 50 mM NaHPO4, pH 6.7, we labeled the Cys-mutant LGP with 5 μM FM in 50 mM NaHPO4, pH 6.7 for 15 min at 37° C. FM. We terminated the labeling reactions with 100 μM β-mercaptoethanol. […] After electrophoresis, we first visualized the fluorescence labeling on a Typhoon 8600 Biomolecular Scanner (GE/Amersham), and then stained the gels with Coomassie blue R (153).\n(§2) Fluorescence spectroscopic binding determinations. We observed fluorophore-labeled cells in an SLM AMINCO 8100 fluorescence spectrometer, upgraded with an OLIS operating system and software (OLIS SpectralWorks, OLIS Inc., Bogart, GA), to control its shutters, polarizers and data collection. We also utilized an OLIS Clarity fluorescence spectrometer for fluorescence assays. […] We performed each measurement in triplicate and calculated the mean value of F/F0 at each ligand concentration. […]"}, "[2]": {"biological_target": "T1, EcoFepA (Escherichia coli, UniProt P05825, A720C)", "T1 construct": "expressed in transfected cells; host or cells: E. coli OKN3/OKN13/OKN359/OKN1359 carrying pITS23 (fepA under its own promoter)", "T1 sequence (P05825 23-746 A720C)": "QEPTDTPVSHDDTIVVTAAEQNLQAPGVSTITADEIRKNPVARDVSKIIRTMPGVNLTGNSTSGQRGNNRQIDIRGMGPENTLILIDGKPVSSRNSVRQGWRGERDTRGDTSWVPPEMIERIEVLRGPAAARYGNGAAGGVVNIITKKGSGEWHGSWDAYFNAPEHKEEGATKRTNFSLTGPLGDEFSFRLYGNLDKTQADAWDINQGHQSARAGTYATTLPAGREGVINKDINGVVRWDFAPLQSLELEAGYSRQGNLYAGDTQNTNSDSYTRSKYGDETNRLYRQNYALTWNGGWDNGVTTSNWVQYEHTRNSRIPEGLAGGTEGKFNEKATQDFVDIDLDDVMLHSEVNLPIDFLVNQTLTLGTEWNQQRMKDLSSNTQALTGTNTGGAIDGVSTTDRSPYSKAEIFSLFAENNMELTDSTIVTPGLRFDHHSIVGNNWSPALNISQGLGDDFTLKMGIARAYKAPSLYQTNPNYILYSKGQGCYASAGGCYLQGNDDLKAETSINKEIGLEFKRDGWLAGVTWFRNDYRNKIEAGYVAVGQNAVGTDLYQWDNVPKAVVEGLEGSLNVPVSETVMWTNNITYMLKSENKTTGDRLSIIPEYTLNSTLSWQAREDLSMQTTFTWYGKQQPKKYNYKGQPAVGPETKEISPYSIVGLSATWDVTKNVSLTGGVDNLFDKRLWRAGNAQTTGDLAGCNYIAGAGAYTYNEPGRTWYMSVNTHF", "experiment": "biochemical", "assay_type": "binding", "description": "Fluorescence modifications. For modifications with maleimide fluorophores, we inoculated E. coli strains OKN3, OKN13, OKN359 or OKN1359, harboring plasmids that encoded a Cys mutant LGP, from frozen stocks into LB, grew them overnight and sub-cultured at 1% into iron-deficient MOPS minimal media, with shaking (200 rpm) at 37° C. for 10-12 h, until late exponential phase. After collecting the cells by centrifugation at 7500×g for 15 min, and washing with 50 mM NaHPO4, pH 6.7, we labeled the Cys-mutant LGP with 5 μM FM in 50 mM NaHPO4, pH 6.7 for 15 min at 37° C. FM. We terminated the labeling reactions with 100 μM β-mercaptoethanol. After collecting the fluoresceinated cells by centrifugation at 7500×g for 15 min, and washing with 50 mM NaHPO4, pH 6.7, we re-suspended them in PBS plus 0.2% glucose. We either immediately used the labeled cells in spectroscopic experiments, or rested them on ice (up to 24 h), or added glycerol to 15% and stored them (indefinitely) as 1 mL aliquots at −70° C. In the latter case, after thawing the labeled cells we pelleted them by centrifugation in a microfuge, washed them once with and re-suspended them in PBS containing 0.2% glucose. Lastly, for evaluation of protein expression or the extent of FM-labeling we solubilized aliquots of the cell suspensions with sample buffer, and subjected them to SDS-PAGE. After electrophoresis, we first visualized the fluorescence labeling on a Typhoon 8600 Biomolecular Scanner (GE/Amersham), and then stained the gels with Coomassie blue R (153).\nFluorescence spectroscopic binding determinations. We observed fluorophore-labeled cells in an SLM AMINCO 8100 fluorescence spectrometer, upgraded with an OLIS operating system and software (OLIS SpectralWorks, OLIS Inc., Bogart, GA), to control its shutters, polarizers and data collection. We also utilized an OLIS Clarity fluorescence spectrometer for fluorescence assays. For binding determinations we deposited 2.5×10^7 labeled cells in a quartz cuvette (final volume, 2 mL) with stirring at 37° C., measured the initial fluorescence (F0), and then added increasing concentrations of an iron complex while monitoring the quenching of fluorescence emissions (F) at 520 nm. We performed each measurement in triplicate and calculated the mean value of F/F0 at each ligand concentration. We plotted 1−F/F0 vs [ligand] and analyzed the data by the 1-site binding model of Grafit 6.0.12 (Erithacus Ltd. West Sussex, UK), that fits data to a single site saturation curve, where the amount of ligand bound is plotted as a function of the amount free:\nThese plots yielded KD values for each of the receptor-ligand interactions, with associated standard errors.\nTable 1 lists KD values from analysis of fluorescence quenching with ferric or apo (parenthetic values) siderophores or porphyrins. For each determination, we measured the extent of fluorescence quenching of an FLGP, when exposed to sequentially increasing concentrations of the listed metal complexes, as plotted in FIGS. 2-4. We performed each experiment 2 or 3 times. The tabulated KD values are from single, representative experiments, in which we collected each data point in triplicate, plotted F/F0 vs [ligand] for each quenching titration, and fitted the curves to a single site binding model using Grafit 6.012 (Erithacus Ltd, […], UK)."}, "[3]": {"biological_target": "T2, PaeFepA (Pseudomonas aeruginosa, UniProt Q05098, S296C)", "T2 construct": "expressed in transfected cells; host or cells: E. coli OKN3/OKN13/OKN359/OKN1359 carrying a pITS23 derivative", "experiment": "Fluorescence quenching binding to PaeFepA-FM sensor", "description": "as §1, §2"}, "[4]": {"biological_target": "KpnIroN (Klebsiella pneumoniae, UniProt A0ACD7U953, T234C)", "experiment": "Fluorescence quenching binding to KpnIroN-FM sensor", "settings": "read-out: Affinity (KD) of sensor KpnIroN, apo siderophore; apo (parenthetic value); T210C", "description": "as §1, §2"}, "[5]": {"biological_target": "KpnFepA4984 (Klebsiella pneumoniae, UniProt A0ACD7TVS5, A414C)", "experiment": "Fluorescence quenching binding to KpnFepA4984-FM sensor", "settings": "read-out: Affinity (KD) of sensor KpnFepA 4984, apo siderophore; apo (parenthetic value); A390C", "description": "as §1, §2"}, "[6]": {"biological_target": "T3, EcoFepB (Escherichia coli, UniProt P0AEL6, T297C)", "T3 construct": "adds a 6H-tag at either the N- or C-termini of the mature proteins; 6-His (N); made in house; host or cells: E. coli BL21 (pET28), IPTG-induced; purified on Talon Superflow", "T3 sequence (P0AEL6 27-318 T297C)": "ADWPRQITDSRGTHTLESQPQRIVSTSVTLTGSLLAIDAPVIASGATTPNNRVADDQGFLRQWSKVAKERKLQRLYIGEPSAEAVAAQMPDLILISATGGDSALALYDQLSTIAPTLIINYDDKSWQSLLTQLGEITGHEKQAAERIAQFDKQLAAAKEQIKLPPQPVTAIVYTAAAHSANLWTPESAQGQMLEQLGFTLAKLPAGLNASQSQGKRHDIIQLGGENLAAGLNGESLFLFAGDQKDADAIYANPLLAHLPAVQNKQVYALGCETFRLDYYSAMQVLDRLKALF", "experiment": "biochemical", "assay_type": "binding", "excerpt": "Cys Mutant protein expression and fluorescent labeling. The vector for LGP production, pITS23, carries wild-type EcofepA under control of its native, Fur-regulated promoter. For expression of each of the E. coli LGP (Fiu, FhuA, IutA, Cir, BtuB) we replaced EcofepA in pITS23 with the alternate LGP structural gene, with its own signal sequence, such that the iron-regulated EcofepA promoter-controlled biosynthesis. For LGP from of other species (KpnFepA, KpnIroN, KpnFyuA, AbaBauA, PaeFepA, PaeFpvA, CcrHutA), we replaced the sequence encoding mature EcoFepA with the sequence encoding the foreign mature LGP, downstream from the EcoFepA signal sequence, and regulated by the EcofepA promoter. […] We evaluated the expression and labeling of each of the cloned LGP by growing the appropriate E. coli host strain (OKN3, OKN359, OKN13 or OKN1359), harboring the plasmid constructs of interest, in iron-deficient MOPS medium to late log phase (A600 nm=2.5-3.5). We subsequently analyzed SDS-PAGE resolved samples of bacterial OM, or purified protein fractions, for fluorescence emissions at […] before staining with Coomassie blue R (FIGS. 7, 8, 9). In some cases, we used mouse monoclonal (α-EcoFepA) antibodies or rabbit polyclonal (α-FepB) antisera to determine the expression levels and stoichiometry of FM-labeling, which allowed quantification of expression. […]"}, "[7]": {"biological_target": "T4, HsaSCN (human siderocalin) (Homo sapiens, UniProt P80188, Q148C)", "T4 construct": "adds a 6H-tag at either the N- or C-termini of the mature proteins; 6-His (N); made in house; host or cells: E. coli BL21 (pET28), IPTG-induced; purified on Talon Superflow", "T4 sequence (P80188 21-198 Q148C)": "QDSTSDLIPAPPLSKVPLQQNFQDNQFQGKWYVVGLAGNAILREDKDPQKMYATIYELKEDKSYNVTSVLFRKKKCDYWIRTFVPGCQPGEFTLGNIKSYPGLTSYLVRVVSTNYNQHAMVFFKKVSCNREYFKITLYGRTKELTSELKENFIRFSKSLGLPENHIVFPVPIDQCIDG", "experiment": "Fluorescence quenching binding to purified HsaSCN-FM sensor", "settings": "ferric complexes and porphyrins; Cys residue Q128C, FM-labeled purified protein; NB = no binding; read-out: Affinity (KD) of sensor HsaSCN"}, "[8]": {"biological_target": "CcrHutA", "experiment": "Fluorescence quenching binding to CcrHutA-FM sensor", "design": "species or system Caulobacter crescentus", "settings": "porphyrins; Cys residue A635C, FM-labeled; NB = no binding; read-out: Affinity (KD) of sensor CcrHutA", "description": "as §1, §2"}}}
{"compound": "O=C(N[C@H]1COC(=O)[C@@H](NC(=O)c2cccc(O)c2O)COC(=O)[C@@H](NC(=O)c2cccc(O)c2O)COC1=O)c1cccc(O)c1O", "note": "[Ent, enterobactin]", "values": [{"measurement": "Kd", "setting": "[1]", "result": 70, "unit": "nM"}, {"measurement": "Kd", "setting": "[2]; Affinity (KD) of sensor EcoFepA, apo siderophore, apo (parenthetic value), A698C", "result": 30, "unit": "nM"}, {"measurement": "Kd", "setting": "[2]; KD, EcoFepA / EcoFepA-FM", "result": 43, "unit": "nM"}, {"measurement": "Kd", "setting": "[3]", "result": 1700, "unit": "nM"}, {"measurement": "Kd", "setting": "[4]", "result": 40, "unit": "nM"}, {"measurement": "Kd", "setting": "[5]", "result": 3300, "unit": "nM"}, {"measurement": "Kd", "setting": "[6]", "result": 6000, "unit": "nM"}]}
{"compound": "hemin [Hn]", "values": [{"measurement": "Kd", "setting": "[7]", "result": 340, "unit": "nM"}, {"measurement": "Kd", "setting": "[8]", "result": 150, "unit": "nM"}]}
